Values quoted from earlier work, collected in US20110046204A1, “Human Zip1, Zinc and Citrate for Prostate Cancer Screening” (University of Maryland, Balitmore, priority 2006, published 2011).

Details: zinc-indicator dye TSQ; read-out: affinity for zinc (Kd)

- Kd: ~10 nM
Compound: COc1cc(NS(=O)(=O)c2ccc(C)cc2)c2ncccc2c1 [TSQ]
